The values that follow come from patent US12570673B2, “c-Myc protein inhibitor, and preparation method therefor and use thereof” (SUZHOU KINTOR PHARMACEUTICALS, INC., priority 2019, dated 2026).

One assay deals with c-Myc peptide LE40 (Homo sapiens, UniProt P01106). Put plainly: Single-cycle binding kinetics with c-Myc peptide LE40.
Assay [1] deals with c-Myc peptide LE40 (S373A) (Homo sapiens, UniProt P01106, S373A). Put plainly: Single-cycle binding kinetics with c-Myc peptide LE40 (S373A).
The subject of a further assay is HL60 cells. Put plainly: Anti-cancer activity test, MTT, HL60 cells. Type of assay: cell-based. The following applies: Homo sapiens, HL-60, culturing for 72 hours. The essentials: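 Log-phase cells seeded at 2×10^4 per well in RPMI-1640 with 10% FBS, treated 72 h at 37 °C with compound (0.2% final DMSO), triplicates. Viability by MTT (3 h), DMSO-solubilized formazan read at 570 nm; IC50 calculated.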

Assay [2] addresses c-Myc370-412-biotin peptide (Homo sapiens (Human), UniProt P01106). Put plainly: SPR binding affinity on c-Myc protein. The following applies: c-Myc370-412-biotin peptide immobilized, 1.00×PBS-P buffer (5% DMSO). On the procedure: 1. Experiment Preparation
10×PBS-P was diluted into 1.05×PBS-P buffer solution for later use. The c-Myc370-412-biotin peptide was dissolved in chromatographic pure DMSO to prepare a 1 mM stock solution. The molecules were dissolved in chromatographic pure DMSO to prepare a 10 mM stock solution. Part of 1.05×PBS-P buffer was added to chromatographic pure DMSO to prepare 1.00×PBS-P buffer (5% DMSO, ready for use).
The highest solubility of each small molecule in the 1.00×PBS-P buffer (5% DMSO) system was tested respectively. This solubility was used as the highest concentration tested for small molecule activity.
2. Protein Immobilization
The c-Myc370-412-biotin peptide stock solution was added to 1.05×PBS-P buffer to prepare a 50 μM solution, and then diluted with 1.00×PBS-P buffer (5% DMSO) to […] for protein immobilization.
After washing the sample channel and reference channel of the chip with 1.00×PBS-P buffer (5% DMSO), an automatic mode was used to immobilize the protein in the sample channel. The target amount of the immobilized protein was 500RU. The immobilization was successful. The buffer was used continuously to flush until equilibrium.
3. Small Molecule Activity Test.
Buffer was used to prepare different concentrations of small molecule compounds for sample testing. The system was 1.00×PBS-P buffer (5% DMSO). The difference was detected between the response of small molecules flowing through the sample channel and the reference channel.
The experimental conditions were a flow rate of 30 μL/min, binding time of 120 seconds, and dissociation time of 240 seconds. After each binding and dissociation test, 50% DMSO was used to flush the tubing, and 10 mM glycine-HCl buffer (pH 2.1) was used to flush the surface of the chip to wash away the remaining compound molecules.

A further assay has as its target c-Myc protein (Homo sapiens (Human), UniProt P01106). Put plainly: Degradation of c-Myc protein.
Assay [3] concerns human esophageal squamous cell carcinoma cells (KYSE510). Put plainly: Anti-cancer activity test, MTT, KYSE510 cells. Type of assay: cell-based. The following applies: KYSE-510, culturing for 72 hours. The protocol: (§1) Cell culture medium: Roswell medium RPMI-1640 (+L-glutamine) was added with 10% fetal bovine serum, with 100 units penicillin and 100 μg streptomycin per ml.
(§2) Cell culture conditions: 5% CO2, 95% humidity, cultured at 37° C. constant temperature.
(§3) 2. Cell Inoculation, Drugs Dosing and Culture.
(§4) Logarithmic growth phase HL-60, human chronic myeloid leukemia cells (K562), human esophageal squamous cell carcinoma cells (KYSE510), human large cell lung cancer cells (H460) were inoculated into 96-well cell culture plates, 2×10^4 cells per well. Different concentrations of active compounds (dissolved in dimethyl sulfoxide (DMSO) stock solution) were added, so that the final concentration of DMSO was 0.2%, and the control group was DMSO. Each group was repeated three times.
(§5) After culturing for 72 hours, 20 µL of thiazolyl blue (MTT) (5 mg/ml, ready for use, dissolved in 1×PBS for cell culture) was added to each well, and incubated at 37° C. for 3 hours.
(§6) The 96-well cell culture plates were centrifuged at 1000 rpm for 10 minutes. The supernatant was discarded; 200 μL of DMSO was added to each well and the plate was shaken for 5 minutes.
(§7) The absorbance of each well was detected at 570 nm wavelength with a microplate reader, and the IC50 of the compounds was calculated.

In assay [4] the test system is human large cell lung cancer cells (H460). Put plainly: Anti-cancer activity test, MTT, H460 cells. In kind it is cell-based. The following applies: NCI-H460, culturing for 72 hours. On the procedure: as §1, §2, §3, §4, §5, §6, §7
Assay [5] concerns human chronic myeloid leukemia cells (K562). Put plainly: Anti-cancer activity test, MTT, K562 cells. In kind it is cell-based. The conditions noted are these: culturing for 72 hours. On the procedure: as §1, §2, §3, §4, §5, §6, §7
Another assay deals with c-Myc and Max (Homo sapiens (Human), UniProt P01106). Put plainly: Competition for the binding of c-Myc and Max.
Sequence of c-Myc and Max (P01106 whole entry): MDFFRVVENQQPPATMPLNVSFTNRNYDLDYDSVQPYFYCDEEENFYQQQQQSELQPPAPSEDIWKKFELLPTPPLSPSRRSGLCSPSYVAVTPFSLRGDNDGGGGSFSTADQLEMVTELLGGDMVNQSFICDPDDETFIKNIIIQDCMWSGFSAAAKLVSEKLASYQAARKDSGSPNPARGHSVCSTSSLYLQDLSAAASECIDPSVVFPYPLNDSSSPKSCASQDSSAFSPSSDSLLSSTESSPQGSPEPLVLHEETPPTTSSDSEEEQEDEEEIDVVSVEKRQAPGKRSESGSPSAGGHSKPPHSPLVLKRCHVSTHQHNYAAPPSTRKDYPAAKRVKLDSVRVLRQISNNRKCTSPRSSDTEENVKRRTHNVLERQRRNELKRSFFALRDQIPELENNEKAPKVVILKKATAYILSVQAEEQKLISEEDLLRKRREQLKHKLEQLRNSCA
Assay [6] relates to tumor cells with high expression of c-Myc. Put plainly: Inhibition of tumor cells with high expression of c-Myc. In kind it is cell-based.

Sequence of c-Myc protein (P01106 whole entry): as above
Sequence of c-Myc370-412-biotin peptide (P01106 385-427): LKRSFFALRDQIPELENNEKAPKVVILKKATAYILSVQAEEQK

Regarding `CSCC[C@H](NC(=O)OCC1c2ccccc2-c2ccccc21)C(=O)N[C@@H](CC(C)C)B1O[C@@H]2C[C@@H]3C[C@@H](C3(C)C)[C@]2(C)O1` [Compound A5], the Kd (commonly a measure of binding affinity in units of concentration) at c-Myc peptide LE40 is 0.16 µM; in assay [2], 0.1 to 0.5 µM. Besides, in assay [1], the “binding (single-cycle binding kinetic curve)” value is reported as “no obvious binding”. Moreover, the IC50 (in general, the midpoint of a concentration-inhibition curve) in the assay with HL60 cells is below 0.1 µM. The “degradation of c-Myc protein” value on c-Myc protein is given as “promote the degradation of c-Myc protein”.
In the case of `CC(C)C[C@H](NC(=O)[C@H](CC(C)C)NC(=O)OCC1c2ccccc2-c2ccccc21)B1O[C@@H]2C[C@@H]3C[C@@H](C3(C)C)[C@]2(C)O1` [Compound A10], the IC50 (in the assay on HL60 cells; in [3]; in assay [4]; in [5]) was below 0.1 µM each time.
With `CC(C)C[C@H](NC(=O)[C@H](CCCCNC(=O)OC(C)(C)C)NC(=O)OCC1c2ccccc2-c2ccccc21)B1O[C@@H]2C[C@@H]3C[C@@H](C3(C)C)[C@]2(C)O1` [Compound A13], the “competition for the binding of c-Myc and Max” value at c-Myc and Max is “can compete for the binding of c-Myc and Max”. In addition, the IC50 in the assay on HL60 cells was below 0.1 µM. Besides, on c-Myc protein, the “degradation of c-Myc protein” value is recorded as “promote the degradation of c-Myc protein”. The “selective inhibition of tumor cells with high expression of c-Myc” value in [6] was “selectively inhibits tumor cells with high expression of c-Myc”.
For the compound `CC(C)C[C@H](NC(=O)[C@H](CC(C)C)NC(=O)CC1c2ccccc2-c2ccccc21)B(O)O` [Compound A67], the IC50 (with HL60 cells; in assay [3]; in assay [4]; in [5]) was below 0.1 µM throughout.
Turning to `CC(C)C[C@H](NC(=O)[C@H](Cc1c[nH]c2ccccc12)NC(=O)CC1CCCC1)B(O)O` [Compound A69], the IC50 (in the assay on HL60 cells; in assay [3]; in assay [4]; in assay [5]) was below 0.1 µM throughout.
